Assay results reported in patent US6106858A, “Modulation of drug loading in multivescular liposomes” (SkyePharma, Inc., priority 1997, dated 2000).
Where “and” joins values, the source holds several entries; their conditions need not be identical. Equal values may be shown once. Read-outs that look alike come from different tables or passages of the source.

Tests used:
[1] = Drug loading of multivesicular liposomes (MVL): drug concentration of suspension relative to lipocrit; type: physicochemical
[2] = Percent encapsulation (percent yield) of drug in final MVL suspension; type: physicochemical
[3] = cited from earlier work
[4] = Lipocrit of MVL suspension; type: physicochemical; conditions: 125 mL scale, first aqueous: 15 mg/mL, 20 mM ammonium citrate
Description: As used herein, "lipocrit," which is defined in analogy to hematocrit, means the ratio of the volume occupied by the liposomes to the total suspension volume multiplied by 100. [formula]
Thus, percent yield of drug was calculated as the ratio of the drug concentration in the final suspension times the volume of the final suspension to the drug concentration in the first aqueous solution times the volume of the first aqueous solution. Lipocrit was calculated, in analogy to hematocrit, as the percent ratio of the pellet volume to the suspension volume (see conditions below for obtaining the pellet volume).
To calculate the lipocrit about 50 μL of the multivesicular liposome suspension was taken up into a capillary tube, and end of the tube was sealed while ensuring that the suspension contained no air bubbles. The suspension was spun in a centrifuge at 600×g for 10 minutes to obtain a pellet layer and a supernatant layer. The percent ratio of the length of the tube occupied by the pellet to that occupied by the suspension gives the lipocrit.

[5] = Solubility of IGF-I versus pH; type: physicochemical
Description: Further studies were conducted using in the first aqueous component concentrations of IGF-I ranging from 10 to 80 mg/mL, either with or without 100 mM HCl or 25 mM citric acid at constant pH. […] Studies have shown that up to about 300 mg/mL of IGF-I is soluble at a pH below 5.

[6] = Integrity of encapsulated IGF-I by SDS-PAGE and RP-HPLC / characterization of encapsulated protein; type: physicochemical
Description: (§1) The physicochemical integrity of the encapsulated IGF-I was confirmed by SDS-PAGE assay using Novex NuPage gel as well as by RP-HPLC assay using a C18 symmetric column. The encapsulated protein was extracted using 75:25 IPA:2N Citric Acid. The bioactivity of the encapsulated IGF-I was confirmed by a mitogenic bioassay using MG-63 human osteosarcoma cell line and 3-(4,5-dimethylthiazol-2-yl)-2,5-diphenyltetrazolium bromide (MTT) stain according to the method of W. Lopaczynski et al., Regulatory Peptides, 48:207-216, 1993. The MG-63 cells were obtained from the American Type Culture Collection (ATCC# CRL 1427), and the dose dependent mitogenic response of quiescent MG-63 cells to added IGF-I was determined.

[7] = test system: MG-63 human osteosarcoma cell line; assay: Mitogenic bioassay of extracted IGF-I with MTT stain; type: cell-based; conditions: mitogenic response of quiescent MG-63 cells, versus unencapsulated standard
Description: as §1

[8] = Percent free drug in MVL suspension; conditions: 125 mL scale, first aqueous: 15 mg/mL, 8.0 w/v % sucrose, 20 mM ammonium citrate, ~321 mOsm
Description: As used herein, "percent free drug" means the ratio of the amount of drug exterior to the liposomes in the final liposome suspension to the total amount of drug in the final suspension (the final product) multiplied by 100. [formula]
125 mL of first aqueous solution was mixed with 125 mL of the lipid component using a high-shear double-mixing vessel system to obtain the first emulsion. […] The aqueous and organic components were mixed at a speed of 8000 rpm for 30 minutes in the first emulsion vessel. […]
Percent free drug was calculated as the percent ratio of the amount of drug in the supernatant to the amount of drug in the final suspension. Percent free drug can also be calculated as the percent ratio of the drug concentration in the supernatant to that in the suspension, times (1-lipocrit) Drug loading, which measures the amount of drug encapsulated in each unit of the encapsulated volume, is approximately equal to and can be estimated (assuming low percent free drug) as the ratio of the drug concentration of the final liposome suspension to the lipocrit. […]
Using a reference absorbance standard established based on drug solutions of known concentration in the same dissolving solution, the concentrations of drug in the suspension and supernatant were calculated.

[9] = prior-art multivesicular liposomes; cited from earlier work
[10] = prior-art multivesicular liposomes; cited from earlier work; remark: listed apart in the source

Molecule: CC(C)C[C@H](NC(=O)[C@H](Cc1ccccc1)NC(=O)CNC(=O)CNC(=O)[C@@H](N)Cc1ccc(O)cc1)C(=O)O [Enkephalin, reference compound]
- effect of osmolarity of first aqueous solution on drug loading [1]: decreasing of osmolarity resulting in increased drug loading
- Drug Loading ([1]; first aqueous: 5 mg/mL, 0.0 w/v % sucrose, 25 mM citric acid, est. 35.5 mOsm): 50.8 mg/mL
- Drug Loading ([1]; first aqueous: 5 mg/mL, 2.5 w/v % sucrose, 25 mM citric acid, est. 111.5 mOsm): 13.4 mg/mL
- Drug Loading ([1]; first aqueous: 5 mg/mL, 5.0 w/v % sucrose, 25 mM citric acid, est. 191.5 mOsm): 6.4 mg/mL
- % Yield [2]: 77.5% and 71.8% and 72.5%
- effect of osmolarity of first aqueous solution on percent yield [2]: not significantly changed by a decrease in osmolarity

Molecule: CCNC(=O)[C@@H]1CCCN1C(=O)[C@H](CCCNC(=N)N)NC(=O)[C@H](CC(C)C)NC(=O)[C@@H](CC(C)C)NC(=O)[C@H](Cc1ccc(O)cc1)NC(=O)[C@H](CO)NC(=O)[C@H](Cc1c[nH]c2ccccc12)NC(=O)[C@H](Cc1c[nH]cn1)NC(=O)[C@@H]1CCC(=O)N1 [Leuprolide, reference compound]
- effect of osmolarity of first aqueous solution on drug loading [1]: decreasing of osmolarity resulting in increased drug loading
- Drug Loading ([1]; first aqueous: 15 mg/mL, 4.0 w/v % sucrose, 100 mM phosphoric acid, est. 261.6 mOsm): 17.9 mg/mL
- Drug Loading ([1]; first aqueous: 15 mg/mL, 6.0 w/v % sucrose, 100 mM phosphoric acid, est. 328.6 mOsm): 10.9 mg/mL
- effect of osmolarity of first aqueous solution on percent yield ([2]; MVL): A similar percent yield was maintained across the range of osmolarities tested
- % Yield ([2]; MVL, first aqueous: 15 mg/mL, 4.0 w/v % sucrose, 100 mM phosphoric acid, est. 261.6 mOsm): 54.1%
- % Yield ([2]; MVL, first aqueous: 15 mg/mL, 6.0 w/v % sucrose, 100 mM phosphoric acid, est. 328.6 mOsm): 56.2%

Molecule: OC[C@H]1O[C@@](CO)(O[C@H]2O[C@H](CO)[C@@H](O)[C@H](O)[C@H]2O)[C@@H](O)[C@@H]1O [sucrose]
- Osmolarity for sucrose ([3]; 0.5 w/v %): 15 mOsm
- Osmolarity for sucrose ([3]; 1.0 w/v %): 30 mOsm
- Osmolarity for sucrose ([3]; 1.5 w/v %): 45 mOsm
- Osmolarity for sucrose ([3]; 2.0 w/v %): 60 mOsm
- Osmolarity for sucrose ([3]; 2.5 w/v %): 76 mOsm
- Osmolarity for sucrose ([3]; 3.0 w/v %): 91 mOsm
- Osmolarity for sucrose ([3]; 4.0 w/v %): 123 mOsm
- Osmolarity for sucrose ([3]; 5.0 w/v %): 156 mOsm
- Osmolarity for sucrose ([3]; 6.0 w/v %): 190 mOsm
- Osmolarity for sucrose ([3]; 7.0 w/v %): 225 mOsm
- Osmolarity for sucrose ([3]; 8.0 w/v %): 261 mOsm

Molecule: IGF-I: insulin-like growth factor I (IGF-I), encapsulated in MVLs
- % Lipocrit ([4]; 5.0 w/v % sucrose, ~216 mOsm): 36.7%
- % Lipocrit ([4]; 8.0 w/v % sucrose, ~321 mOsm): 41.8%
- solubility and bioavailability of encapsulated IGF-I versus pH ([5]; 10 to 80 mg/mL IGF-I, with or without 100 mM HCl or 25 mM citric acid): varied according to pH of the first aqueous component
- solubility ([5]; pH below 5): about 300 mg/mL
- physicochemical integrity of encapsulated IGF-I ([6]; SDS-PAGE and RP-HPLC, extracted with 75:25 IPA:2N citric acid): confirmed
- degradation of encapsulated protein ([6]; Table 6A formulations (100 mM HCl)): showed some degradation
- presence of IGF-I oligomers ([6]; absence of an acid buffer, Table 6B): increased presence of IGF-I oligomers in the absence of an acid buffer
- bioactivity of extracted IGF-I [7]: approximately equivalent to that of an unencapsulated standard
- % Free IGF-I [8]: 0.18%

Molecule: cytosine arabinoside [Cytarabine]
- Drug Loading ([1]; first aqueous: 40 mg/mL, 0.0 w/v % sucrose, 20 mM citric acid, est. 185.9 mOsm): 61.7 mg/mL
- Drug Loading ([1]; first aqueous: 40 mg/mL, 2.0 w/v % sucrose, 20 mM citric acid, est. 245.9 mOsm): 45.2 mg/mL
- Drug Loading ([1]; first aqueous: 40 mg/mL, 5.0 w/v % sucrose, 20 mM citric acid, est. 341.9 mOsm): 30.8 mg/mL
- Drug Loading ([1]; first aqueous: 40 mg/mL, 8.0 w/v % sucrose, 20 mM citric acid, est. 446.9 mOsm): 21.0 mg/mL
- % Yield [2]: 57.1% and 62.6% and 77.3% and 69.6%
- effect of osmolarity of first aqueous solution on percent yield [2]: remaining relatively constant
- encapsulation efficiency [9]: relatively low
- release rate of encapsulated molecules in biological fluids [10]: faster than is therapeutically desirable
